Reference: patent US7786108B2, “Compounds and method for treating dyslipidemia” (Eli Lilly and Company, priority 2004, dated 2010)
Counter-ions that a name gives are not always drawn.

The compounds below were run on transgenic mice that express both human CETP and human apolipoprotein A-1 (assay: In vivo assay of plasma lipids: elevation of HDL cholesterol). Details: Mus musculus; single oral dose 30 mg/kg; HDL cholesterol in serum at 8 hr after administration; relative to a control; read-out: % HDL cholesterol increase.
Text: Additional serum lipids can be analyzed by enzymatic methods.

Row | SMILES | change in vivo at 30 mg/kg
1 | Cc1cc2c(cc1C(F)(F)F)N(C1CCC(C(=O)O)CC1)CCC[C@@H]2N(Cc1cc(C(F)(F)F)cc(C(F)(F)F)c1)c1nnn(C)n1 (stereo partly drawn) [Example 175, (S)-4-{5-[(3,5-Bis-trifluoromethyl-benzyl)-(2-methyl-2H-tetrazol-5-yl)-amino]-7-methyl-8-trifluoromethyl-2,3,4,5-tetrahydro-benzo[b]azepin-1-yl}-cyclohexanecarboxylic acid] | 100%
2 | Cc1cc2c(c(C)c1C(F)(F)F)N(Cc1ccc(C(=O)O)cc1)CCC[C@@H]2N(Cc1cc(C(F)(F)F)cc(C(F)(F)F)c1)c1nnn(C)n1 [Example 202, (S)-4-{5-[(3,5-Bis-trifluoromethyl-benzyl)-(2-methyl-2H-tetrazol-5-yl)-amino]-7,9-dimethyl-8-trifluoromethyl-2,3,4,5-tetrahydro-benzo[b]azepin-1-ylmethyl}-benzoic acid] | 206%
3 | Cn1nnc(N(Cc2cc(C(F)(F)F)cc(C(F)(F)F)c2)[C@H]2CCCN(CC3CCCC3)c3cc4c(cc32)OC(F)(F)O4)n1 [Example 178, (S)-(3,5-Bis-trifluoromethyl-benzyl)-(5-cyclopentylmethyl-2,2-difluoro-6,7,8,9-tetrahydro-5H-1,3-dioxa-5-aza-cyclohepta[f]inden-9-yl)-(2-methyl-2H-tetrazol-5-yl)-amine] | 128%
4 | Cn1nnc(N(Cc2cc(C(F)(F)F)cc(C(F)(F)F)c2)[C@H]2CCCN(CC3CCCC3)c3cc4c(cc32)CCCC4)n1 [Example 77, (3,5-Bis-trifluoromethyl-benzyl)-(1-cyclopentylmethyl-2,3,4,5,7,8,9,10-octahydro-1H-naphtho[2,3-b]azepin-5-yl)-(2-methyl-2H-tetrazol-5-yl)-amine] | 229%
5 | Cc1cc2c(cc1C(F)(F)F)N(Cc1cncc(C(=O)O)c1)CCC[C@@H]2N(Cc1cc(C(F)(F)F)cc(C(F)(F)F)c1)c1nnn(C)n1 [Example 142, (S)-5-{5-[(3,5-Bis-trifluoromethyl-benzyl)-(2-methyl-2H-tetrazol-5-yl)-amino]-7-methyl-8-trifluoromethyl-2,3,4,5-tetrahydro-benzo[b]azepin-1-ylmethyl}-nicotinic acid hydrochloride] | 90%
6 | Cc1cc2c(cc1C(F)(F)F)N(C(=O)OC(C)(C)C)CCC[C@@H]2N(Cc1cc(Cl)cc(C(F)(F)F)c1)c1nnn(C)n1 [Example 185, (S)-5-[(3-Chloro-5-trifluoromethyl-benzyl)-(2-methyl-2H-tetrazol-5-yl)-amino]-7-methyl-8-trifluoromethyl-2,3,4,5-tetrahydro-benzo[b]azepine-1-carboxylic acid tert-butyl ester] | 155%
7 | Cc1cc2c(cc1C(F)(F)F)N(C(=O)OC1CCCC1)CCC[C@@H]2N(Cc1cc(C(F)(F)F)cc(C(F)(F)F)c1)c1nnn(C)n1 [Example 20, (S)-5-[(3,5-Bis-trifluoromethyl-benzyl)-(2-methyl-2H-tetrazol-5-yl)-amino]-7-methyl-8-trifluoromethyl-2,3,4,5-tetrahydro-benzo[b]azepine-1-carboxylic acid cyclopentyl ester] | 72%
8 | Cc1c2c(cc3c1N(C[C@H]1CC[C@H](CC(=O)O)CC1)CCC[C@@H]3N(Cc1cc(C(F)(F)F)cc(C(F)(F)F)c1)c1nnn(C)n1)COC2 [Example 165, (S)-(4-{9-[(3,5-Bis-trifluoromethyl-benzyl)-(2-methyl-2H-tetrazol-5-yl)-amino]-4-methyl-1,3,6,7,8,9-hexahydro-2-oxa-5-aza-cyclohepta[f]inden-5-ylmethyl}-cyclohexyl)-acetic acid] | 177%
9 | Cc1cc2c(cc1C(F)(F)F)N(Cc1ccncc1)CCC[C@@H]2N(Cc1cc(Cl)cc(C(F)(F)F)c1)c1nnn(C)n1 [Example 191, (S)-(3-Chloro-5-trifluoromethyl-benzyl)-(7-methyl-1-pyridin-4-ylmethyl-8-trifluoromethyl-2,3,4,5-tetrahydro-1H-benzo[b]azepin-5-yl)-(2-methyl-2H-tetrazol-5-yl)-amine] | 91%
